In US7618946B2, “Analgesic compounds, extracts containing same and methods of preparation” (Griffith University, priority 2003, dated 2009):
Entries after “also recorded” stand apart in the source; their conditions may differ.

Key:
mice [1] = conditions: cited from earlier work; for response in both early and late phases: known analgesics [61]; for analgesia in both phases of the formalin test: [61]; for effect on late phase: anti-inflammatory compounds and steroids [61]
Male Quackenbush mice = test: mouse formalin assay; assay type: in vivo
Method: The formalin assay involves the subcutaneous injection of a small amount of formalin into the fore or hind paw of a rat or mouse and the behavioural response to this injection is recorded as a measure of pain response.
The formalin assay was preformed on male mice using morphine, and other compounds of interest, as an analgesic, to test the viability and reliability of the assay as a means of measuring pain response in mice.
Male Quackenbush mice weighing 25-35 g were used. They were housed in colony cages (400×300×130 mm; Wiretainers) with ad libitum access to food (standard rat/mouse pellets; Norco Feeds) and water. For short term storage a maximum of 15-16 mice were housed per cage while for longer periods this number was reduced to less than 10 mice per cage. Bedding material was wood shavings or more commonly recycled paper pellets (Breeders Choice).
Formalin (Ajax) was supplied as solution of approximately 37.5% formaldehyde containing 10% methanol as a preservative. […]
Morphine and other compounds of interest were injected in a volume of 10 mL/kg intraperitoneally (ip) 30 minutes prior to formalin administration. […] The sole behavioural response recorded was the amount of time the animal spent biting or licking the injected paw or leg per 5 minute block was recorded. […]
Using this value a percentage pain inhibition can be calculated using the formula:—

[2] = cited from earlier work; for ED50: acetic acid writhing test [52]; for inhibition of acetic acid induced writhing: 10 and 30 mg/kg (sc) [56]
mice [3] = conditions: mice [59]; cited from earlier work
mice [4] = conditions: mice [59]; cited from earlier work; remark: listed apart in the source
FCA-rats [5] = test: side effects observed after i.v. bolus doses in FCA-rats; assay type: in vivo, Sprague-Dawley rats; design: key to Intensity: 0 = none; 1 = mild; 2 = moderate; 3 = severe; 4 = extreme
Method: Each of the compounds F70.3.2 and F70.3.6 were dissolved in sterile saline. The compounds of interest were administered initially in a dose of 0.01 mg/kg in an injection volume of 0.5 mL. The other i.v. doses administered in this preliminary study were as follows: […]

FCA-rats [6] = test: paw pressure test in rat model of inflammatory pain (FCA); assay type: in vivo, Sprague-Dawley rats; conditions: i.v. bolus; for dose-response of antinociceptive effect (AUC versus dose): ipsilateral hindpaw, FIG. 68
Method: Adult male Sprague-Dawley rats were housed in a temperature controlled room (21±2° C.) with a 12 h/12 h light/dark cycle and free access to both food and water. Ethical approval for this study was obtained from the Animal Experimentation Ethics Committee of The University of Queensland.
Inflammation of the rat hindpaw was induced by intra-plantar (i.pl.) injection of Freund's Complete Adjuvant (FCA, 0.15 mL) whilst rats were under brief 3% isoflurane: 97% oxygen inhalational anaesthesia. Inflammatory pain was assessed using the paw pressure test (see below for details). The test compounds were administered on either day 5 or day 6 following i.pl. FCA administration.
Jugular vein cannulation was performed whilst rats were anaesthetised with 3% isoflurane: 97% O2 inhalational anaesthesia maintained using a calibrated Trilene vapouriser. Polyethylene cannulae (previously filled with heparinised saline) were implanted into the right common jugular vein for i.v. drug dosing. Cannulae were exteriorized by subcutaneous (s.c.) tunneling to an incision made in the interscapular area, and protected by a stainless steel spring, the base of which was positioned in a subcutaneous pocket between the scapulae. Incisions were closed with sterile silk sutures. After surgery, rats were housed singly in metabolic cages and were allowed to recover post-operatively for a minimum of 2 h before further experimentation. Food and water were available ad libitum during the recovery period.
Each of the compounds F70.3.2 and F70.3.6 were dissolved in sterile saline. The compounds of interest were administered initially in a dose of 0.01 mg/kg in an injection volume of 0.5 mL. The other i.v. doses administered in this preliminary study were as follows:
Control rats received bolus doses of i.v. saline. Antinociceptive Testing: Paw Pressure Test
For the paw pressure test, rats were gently restrained under a towel, and incremental mechanical pressure (maximum=250 g) was applied to the dorsal surface of the hindpaw. The pressure required to elicit paw withdrawal, the paw pressure threshold (PPT), was determined. The mean of 3 consecutive measurements, separated by 10 s, was determined. The same procedure was then performed on the contralateral side with the sequence of sides being alternated to preclude order effects. Similarly, rats were gently restrained under a towel for the quantification of paw volumes using a plethysmometer.
Following administration of i.v. bolus doses of each of the test compounds (F70.3.2 and F70.3.6), paw withdrawal thresholds (g) were normalized by subtraction of the individual baseline PWT values quantified immediately prior to drug administration. The area under the normalized PWT versus time (AUC) was calculated using the trapezoidal rule. Dose-response curves were constructed by plotting the AUC values versus the i.v. dose for each of F70.3.2 and F70.3.6.

[7] = i.v. 0.005 mg/kg, Apnoea, Table 19
[8] = i.v. 0.02 mg/kg, Apnoea, Table 19
[9] = i.v. 0.02 mg/kg, Staring, Table 19
[10] = i.v. 0.005 mg/kg, Body shaking, Table 20
[11] = i.v. 0.01 mg/kg, Body shaking, Table 20
[12] = i.v. 0.02 mg/kg, Staring, Table 20
[13] = i.v. 0.05 mg/kg, Apnoea, Table 20
[14] = i.v. 0.05 mg/kg, Staring, Table 20

For `COc1ccc2c3c1O[C@H]1[C@@H](O)C=C[C@H]4[C@@H](C2)N(C)CC[C@@]341` [codeine], the “response in both early and late phases” value (mice [1]) is listed as “can be reduced”.
For `CC(=O)Nc1ccc(O)cc1` [paracetamol], the “analgesia in both phases of the formalin test” value (mice [1]) is listed as “analgesic in a dose dependent manner in both phases”.
In the case of `CN1CC[C@]23c4c5ccc(O)c4O[C@H]2[C@@H](O)C=C[C@H]3[C@H]1C5` [morphine], the ED50 (Male Quackenbush mice; Mus musculus, ip, read-out: ED50 (morphine dose response curve, pain inhibition)) is given as 4.8 mg/kg, the analgesia induced (mice [1]; at 6 mg/kg [64]) is given as “almost complete analgesia” and the “response in both early and late phases” value (mice [1]) is given as “can be reduced”. The “ED50, entire experimental period” value (mice [1]; subcutaneous, entire experimental period [63]) was 4.8 mg/kg.
For `C[S+](C)[O-]` [DMSO control, dimethyl sulfoxide], the “reduction of pain response by DMSO” value (Male Quackenbush mice; high dose (5%) DMSO) was 57%.
In the case of `CN1CCOC(c2ccccc2)c2ccccc2C1` (centres unmarked) [nefopam], the “response in both early and late phases” value (mice [1]) is listed as “can be reduced”.
For barbatoside A, the ED50 [2] is given as 95 mg/kg.
In the case of `CC1(C)CC[C@]2(C(=O)O[C@@H]3O[C@H](CO)[C@@H](O)[C@H](O)[C@H]3O)CC[C@]3(C)C(=CC[C@@H]4[C@@]5(C)CC[C@H](O[C@@H]6O[C@H](CO)[C@@H](O)[C@H](O)[C@H]6O)[C@@](C)(C(=O)O)[C@@H]5CC[C@]43C)[C@@H]2C1` [Dianoside A], the “inhibition of acetic acid induced writhing” value [2] is listed as “significantly inhibit”.
In the case of `COc1ccc2c(c1)c(CC(=O)O)c(C)n2C(=O)c1ccc(Cl)cc1` [indomethacin], the “effect on late phase” value (mice [1]) is given as “affected”.
For `CC(=O)Oc1ccccc1C(=O)O` [aspirin], the “inhibition of p-phenylquinone induced writhing” value (mice [3]) is listed as 85%, the ED50 [2] is listed as 125 mg/kg and the “inhibition of acetic acid induced writhing” value (mice [4]) is listed as 80%. The “analgesia in both phases of the formalin test” value (mice [1]) was “analgesic in a dose dependent manner in both phases”.
With `CC(=O)OCC12C(O)CC3(C)C(=CCC4C5(C)CCC(OC6OC(C(=O)O)C(O)C(OC7OCC(O)C(O)C7O)C6OC6OC(CO)C(O)C(O)C6O)C(C)(C)C5CCC43C)C1CC(C)(C)C(OC(=O)c1ccccc1)C2O` [Compound F70.3.2, 3-O-β-D-xylopyranosyl(1→3)-[β-D-galactopyranosyl(1→2)]-β-D-glucuronopyranosyl-21-O-benzoyl-28-O-acetyl barringtogenol C] the Duration (FCA-rats [5]; [7]) was 0.5 min, the Intensity (FCA-rats [5]; [7]) was 1 and the “No of rats observed with side-effect” value (FCA-rats [5]; [7]) was 1/3. The Onset (FCA-rats [5]; [7]) was 180 min, the Side effect (FCA-rats [5]; i.v. 0.005 mg/kg, Table 19) was “Apnoea” and the Duration (FCA-rats [5]; [8]) was 15 min. For the same compound, the Intensity (FCA-rats [5]; [8]) was 1, the “No of rats observed with side-effect” value (FCA-rats [5]; [8]) was 1/3 and the Onset (FCA-rats [5]; [8]) was 30 min. The Duration (FCA-rats [5]; [9]) was 15 min, the Intensity (FCA-rats [5]; [9]) was 1 and the “No of rats observed with side-effect” value (FCA-rats [5]; [9]) was 1/3. The Onset (FCA-rats [5]; [9]) was 30 min, the Side effect (FCA-rats [5]; i.v. 0.02 mg/kg, Table 19, 0.02 mg/kg) was “Apnoea; also recorded: Staring” and the “antinociception, contralateral (non-inflamed) hindpaw” value (FCA-rats [6]) was “absence of antinociception”. The “antinociception, ipsilateral (inflamed) hindpaw (paw withdrawal threshold)” value (FCA-rats [6]; FIG. 65) was “dose-related increase in the antinociceptive potency” and the “dose-response of antinociceptive effect (AUC versus dose)” value (FCA-rats [6]) was “distinct increase and then plateau”.
In the case of `CC(=O)OC1C(OC2OCC(OC(=O)c3ccccc3)C(OC(=O)C(C)C(C)OC(=O)c3ccccc3)C2O)C(C)(C)CC2C3=CCC4C5(C)CCC(OC6OC(C(=O)O)C(O)C(OC7OCC(O)C(O)C7O)C6OC6OC(CO)C(O)C(O)C6O)C(C)(C)C5CCC4(C)C3(C)CC(O)C21CO` [Compound F70.3.6, 3-O-β-D-xylopyranosyl(1→3)-[β-D-galactopyranosyl(1→2)]-β-D-glucuronopyranosyl-21-O-[3-(3-benzoyl-2-methylbutanoyl)-4-benzoyl-α-L-arabinopyranosyl]-22-O-acetyl barringtogenol C], the Duration (FCA-rats [5]; [10]) is reported as 5 min, the Intensity (FCA-rats [5]; [10]) is reported as 1 and the “No of rats observed with side-effect” value (FCA-rats [5]; [10]) is reported as 1/3. For the same compound, the Onset (FCA-rats [5]; [10]) was 15 min, the Side effect (FCA-rats [5]; i.v. 0.005 mg/kg, Table 20) was “Body” and the Duration (FCA-rats [5]; [11]) was 5 min. For the same compound, the Intensity (FCA-rats [5]; [11]) was 1, the “No of rats observed with side-effect” value (FCA-rats [5]; [11]) was 1/3 and the Onset (FCA-rats [5]; [11]) was 30 min. The Side effect (FCA-rats [5]; i.v. 0.01 mg/kg, Table 20) was “Body”, the Duration (FCA-rats [5]; [12]) was 15 min and the Intensity (FCA-rats [5]; [12]) was 1. The “No of rats observed with side-effect” value (FCA-rats [5]; [12]) was 1/3, the Onset (FCA-rats [5]; [12]) was 45 min and the Side effect (FCA-rats [5]; i.v. 0.02 mg/kg, Table 20) was “Staring”. For the same compound, the Duration (FCA-rats [5]; [13]) was 30 min, the Intensity (FCA-rats [5]; [13]) was 1 and the “No of rats observed with side-effect” value (FCA-rats [5]; [13]) was 1/1. The Onset (FCA-rats [5]; [13]) was 5 min, the Duration (FCA-rats [5]; [14]) was 15 min and the Intensity (FCA-rats [5]; [14]) was 1. The “No of rats observed with side-effect” value (FCA-rats [5]; [14]) was 1/1, the Onset (FCA-rats [5]; [14]) was 30 min and the Side effect (FCA-rats [5]; i.v. 0.05 mg/kg, Table 20, 0.05 mg/kg, onset 5 min, lasting 30 min) was “Apnoea”. The Side effect (FCA-rats [5]; i.v. 0.05 mg/kg, Table 20, 0.05 mg/kg, onset 30 min, lasting 15 min) was “Staring”, the “antinociception, contralateral (non-inflamed) hindpaw” value (FCA-rats [6]) was “absence of antinociception” and the “antinociception, ipsilateral hindpaw” value (FCA-rats [6]; dose range 0.002-0.01 mg/kg, FIG. 66) was “dose-related increase in the antinociceptive potency”. The “antinociceptive response, ipsilateral hindpaw, on further increases in dose” value (FCA-rats [6]; doses above 0.01 mg/kg) was “decreased rather than an increased antinociceptive response” and the “dose-response of antinociceptive effect (AUC versus dose)” value (FCA-rats [6]) was “distinct increase and then plateau”.
For `COc1ccc2cc([C@H](C)C(=O)O)ccc2c1` [naproxen], the “effect on late phase” value (mice [1]) is listed as “affected”.
For `CC1(C)CC[C@]2(C(=O)O[C@@H]3O[C@H](CO[C@@H]4O[C@H](CO)[C@@H](O)[C@H](O)[C@H]4O)[C@@H](O)[C@H](O[C@@H]4O[C@H](CO)[C@@H](O)[C@H](O)[C@H]4O)[C@H]3O)CC[C@]3(C)C(=CC[C@@H]4[C@@]5(C)CC[C@H](O[C@@H]6O[C@H](CO)[C@@H](O)[C@H](O)[C@H]6O)[C@@](C)(C(=O)O)[C@@H]5CC[C@]43C)[C@@H]2C1` [Dianoside B], the “inhibition of acetic acid induced writhing” value [2] is given as “significantly inhibit”.
For `Cc1ccccc1C(OCCN(C)C)c1ccccc1` (centres unmarked) [orphendarine], the “response in both early and late phases” value (mice [1]) is given as “can be reduced”.
In the case of `C[C@]12CCC(=O)C=C1CC[C@@H]1[C@@H]2[C@@H](O)C[C@@]2(C)[C@H]1CC[C@]2(O)C(=O)CO` [hydrocortisone], the “effect on late phase” value (mice [1]) is listed as “affected”.
